Source: patent US8952024B2, “Herbicidal pyrimidone derivatives” (E I du Pont de Nemours and Company, priority 2009, dated 2015)

How the values were obtained:
Test in all cases: Test B pre-/postemergence plant response
Assay type in all cases: in vivo
[1] = system: blackgrass (Alopecurus myosuroides)
Method in brief: (§1)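 Visually scored on a 0 to 100 scale after 13 to 15 days in greenhouse versus controls. Treatments were preemergence on seeded loam/sand soil and postemergence on 1- to 4-leaf plants.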

[2] = system: kochia (Kochia scoparia)
Method in brief: as §1

[3] = system: corn (Zea mays)
Method in brief: as §1

[4] = system: pigweed (Amaranthus retroflexus)
Method in brief: as §1

[5] = system: ragweed (common ragweed, Ambrosia elatior); conditions: for Ragweed plant response rating (0 to 100 scale): 0 is no effect, 100 is complete control
Method in brief: as §1

[6] = system: woolly cupgrass (Eriochloa villosa)
Method in brief: as §1

[7] = system: downy bromegrass (Bromus tectorum)
Method in brief: as §1

[8] = system: giant foxtail (Setaria faberii)
Method in brief: as §1

[9] = system: velvetleaf (Abutilon theophrasti); conditions: for Velvetleaf plant response rating (0 to 100 scale): 0 is no effect, 100 is complete control
Method in brief: as §1

[10] = system: Surinam grass (Brachiaria decumbens); conditions: for Surinam Grass plant response rating (0 to 100 scale): 0 is no effect, 100 is complete control
Method in brief: as §1

[11] = system: johnsongrass (Sorghum halepense)
Method in brief: as §1

[12] = system: Italian ryegrass (Lolium multiflorum); conditions: for Ryegrass, Italian plant response rating (0 to 100 scale): 0 is no effect, 100 is complete control
Method in brief: as §1

[13] = system: soybean (Glycine max); conditions: for Soybean plant response rating (0 to 100 scale): 0 is no effect, 100 is complete control
Method in brief: as §1

[14] = 31 g ai/ha, postemergence, scale 0 to 100, 0 is no effect, 100 is complete control
[15] = 62 g ai/ha, postemergence, 0 is no effect, 100 is complete control, 13 to 15 days
[16] = Postemergence, 125 g ai/ha, scale 0 to 100 (0 no effect, 100 complete control)
[17] = Postemergence, 250 g ai/ha, scale 0 to 100 (0 no effect, 100 complete control)
[18] = 62 g ai/ha, postemergence, 13 to 15 days
[19] = Postemergence, 31 g ai/ha, scale 0 to 100 (0 no effect, 100 complete control)
[20] = Postemergence, 62 g ai/ha, scale 0 (no effect) to 100 (complete control), 13 to 15 days
[21] = Postemergence, 125 g ai/ha, visual rating after 13 to 15 days, scale 0 (no effect) to 100 (complete control)
[22] = Postemergence, 250 g ai/ha, scale 0 to 100
[23] = Preemergence, rated after 13 to 15 days, application rate of this section not shown

CCCCn1c(-c2cc(F)cc(F)c2)ncc(C(=O)C2=C(O)CCCC2=O)c1=O [Compound 121]
50: Bromegrass, Downy plant response rating (0 to 100 scale) [7, 15]
85: Plant response rating, Corn [3, 17] | Ragweed plant response rating (0 to 100 scale) [5, 18] | Plant response rating, Johnsongrass [11, 17]
80: Plant response rating, Bromegrass, Downy [7, 16]
20: Plant response rating, Johnsongrass [11, 14]
40: Blackgrass plant response rating (0 to 100 scale) [1, 15] | Plant response rating, Blackgrass [1, 16] | Ryegrass, Italian plant response rating (0 to 100 scale) [12, 18]
5: Plant response rating, Blackgrass [1, 14]
100: Kochia plant response rating (0 to 100 scale) [2, 15] | Plant response rating, Kochia [2, 17] | Plant response rating, Pigweed [4, 14] | Pigweed plant response rating (0 to 100 scale) [4, 15] | Plant response rating, Pigweed [4, 16] | Plant response rating, Pigweed [4, 17] | Cupgrass, Woolly plant response rating (0 to 100 scale) [6, 15] | Plant response rating, Cupgrass, Woolly [6, 16] | Plant response rating, Cupgrass, Woolly [6, 17] | Plant response rating, Velvetleaf [9, 16] | Plant response rating, Velvetleaf [9, 17] | Surinam Grass plant response rating (0 to 100 scale) [10, 18] | Plant response rating, Surinam Grass [10, 16] | Plant response rating, Surinam Grass [10, 17] | Plant response rating, Soybean [13, 17]
70: Johnsongrass plant response rating (0 to 100 scale) [11, 15] | Plant response rating, Ryegrass, Italian [12, 16]
25: Plant response rating, Corn [3, 14] | Plant response rating, Bromegrass, Downy [7, 14]
90: Plant response rating, Ragweed [5, 16] | Plant response rating, Bromegrass, Downy [7, 17] | Soybean plant response rating (0 to 100 scale) [13, 18]
98: Foxtail, Giant plant response rating (0 to 100 scale) [8, 15] | Plant response rating, Foxtail, Giant [8, 16] | Plant response rating, Foxtail, Giant [8, 17] | Velvetleaf plant response rating (0 to 100 scale) [9, 18]
75: Plant response rating, Ryegrass, Italian [12, 17]
95: Plant response rating, Kochia [2, 14] | Plant response rating, Ragweed [5, 17] | Plant response rating, Cupgrass, Woolly [6, 14] | Plant response rating, Foxtail, Giant [8, 14] | Plant response rating, Soybean [13, 16]
60: Plant response rating, Blackgrass [1, 17]
55: Corn plant response rating (0 to 100 scale) [3, 15] | Plant response rating, Corn [3, 16]

5-[(2-hydroxy-6-oxo-1-cyclohexen-1-yl)carbonyl]-2,3-diphenyl-4(3H)-pyrimidinone [Compound 2]
90: Pigweed plant response rating [4, 22] | Velvetleaf plant response rating [9, 22]
70: Plant response rating, Ragweed [5, 20] | Plant response rating, Ragweed [5, 21] | Plant response rating, Soybean [13, 21]
20: Plant response rating, Kochia [2, 20] | Cupgrass, Woolly plant response rating [6, 22] | Plant response rating, Foxtail, Giant [8, 21] | Surinam Grass plant response rating [10, 22] | Johnsongrass plant response rating [11, 22]
85: Plant response rating, Pigweed [4, 21] | Plant response rating, Velvetleaf [9, 21]
10: Bromegrass, Downy plant response rating [7, 22] | Plant response rating, Surinam Grass [10, 21]
0: Plant response rating, Blackgrass [1, 19] | Plant response rating, Blackgrass [1, 20] | Plant response rating, Corn [3, 19] | Plant response rating, Corn [3, 20] | Plant response rating, Corn [3, 21] | Corn plant response rating [3, 22] | Plant response rating, Cupgrass, Woolly [6, 19] | Plant response rating, Cupgrass, Woolly [6, 20] | Plant response rating, Cupgrass, Woolly [6, 21] | Plant response rating, Bromegrass, Downy [7, 19] | Plant response rating, Bromegrass, Downy [7, 20] | Plant response rating, Bromegrass, Downy [7, 21] | Plant response rating, Foxtail, Giant [8, 19] | Velvetleaf plant response rating (0 to 100 scale) [9, 23] | Plant response rating, Surinam Grass [10, 19] | Plant response rating, Surinam Grass [10, 20] | Surinam Grass plant response rating (0 to 100 scale) [10, 23] | Plant response rating, Johnsongrass [11, 19] | Plant response rating, Johnsongrass [11, 20] | Plant response rating, Johnsongrass [11, 21] | Plant response rating, Ryegrass, Italian [12, 19] | Plant response rating, Ryegrass, Italian [12, 20] | Plant response rating, Ryegrass, Italian [12, 21] | Ryegrass, Italian plant response rating [12, 22] | Ryegrass, Italian plant response rating (0 to 100 scale) [12, 23] | Soybean plant response rating (0 to 100 scale) [13, 23]
65: Plant response rating, Pigweed [4, 19] | Plant response rating, Soybean [13, 20]
5: Plant response rating, Blackgrass [1, 21] | Blackgrass plant response rating [1, 22]
25: Plant response rating, Kochia [2, 21] | Ragweed plant response rating (0 to 100 scale) [5, 23]
80: Plant response rating, Pigweed [4, 20] | Soybean plant response rating [13, 22]
45: Kochia plant response rating [2, 22]
75: Ragweed plant response rating [5, 22] | Plant response rating, Velvetleaf [9, 20]
55: Plant response rating, Velvetleaf [9, 19]
60: Plant response rating, Ragweed [5, 19]
50: Foxtail, Giant plant response rating [8, 22] | Plant response rating, Soybean [13, 19]
15: Plant response rating, Kochia [2, 19] | Plant response rating, Foxtail, Giant [8, 20]
